Drawing on patent US11136409B2, “Compositions and methods for identification, assessment, prevention, and treatment of AML using USP10 biomarkers and modulators” (Dana-Farber Cancer Institute, Inc., priority 2016, dated 2021), this text covers IC50 and FLT3 protein levels for three molecules.

For assay [1], the target named is T1, human USP10 (residues 376-798) (Homo sapiens, UniProt Q14694).
T1 construct: A construct of human USP10 covering residues 376-798 in the pET28a vector; His-tag (cleaved yes); made in house; host or cells: E. coli BL21 (DE3)
T1 sequence (Q14694 376-798): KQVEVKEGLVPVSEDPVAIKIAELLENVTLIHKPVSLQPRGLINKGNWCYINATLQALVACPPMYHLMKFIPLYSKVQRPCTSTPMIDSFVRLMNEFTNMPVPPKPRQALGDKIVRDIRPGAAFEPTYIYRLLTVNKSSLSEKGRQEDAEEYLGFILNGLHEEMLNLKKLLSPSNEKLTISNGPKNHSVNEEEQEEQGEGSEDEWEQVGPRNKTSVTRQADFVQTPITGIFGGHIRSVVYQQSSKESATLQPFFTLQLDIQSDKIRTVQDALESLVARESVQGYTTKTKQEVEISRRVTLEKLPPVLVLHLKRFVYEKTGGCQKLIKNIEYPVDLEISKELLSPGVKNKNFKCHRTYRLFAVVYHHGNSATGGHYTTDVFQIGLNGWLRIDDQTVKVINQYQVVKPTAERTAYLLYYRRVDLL
The assay is described as follows: In vitro USP10 activity assay (Ubiquitin-AMC). Format: biochemical. Particulars: ubiquitin-AMC as substrate; purified enzyme; read-out: USP10 biochemical IC50. On the procedure:
Protein expression and purification. A construct of human USP10 covering residues 376-798 in the pET28a vector was over-expressed in E. coli BL21 (DE3) in TB medium in the presence of […] of kanamycin. Cells were grown at 37° C. to an OD of 0.8, cooled to 17° C., induced with 500 μM isopropyl-1-thio-D-galactopyranoside, incubated overnight at 17° C., collected by centrifugation, and stored at −80° C. Cell pellets were sonicated in buffer A (50 mM HEPES (pH 7.5), 300 mM NaCl, 10% glycerol, 10 mM Imidazole, and 3 mM BME) and the resulting lysate was centrifuged at 30,000×g for 30 min. Ni-NTA beads (Qiagen) were mixed with lysate supernatant for 30 min and washed with buffer A. Beads were transferred to an FPLC-compatible column and the bound protein was washed with 15% buffer B (50 mM HEPES (pH 7.5), 300 mM NaCl, 10% glycerol, 300 mM Imidazole, and 3 mM BME) and eluted with 100% buffer B. Thrombin was added to the eluted protein and incubated at 4° C. overnight. The sample was then passed through a HiPrep 26/10 desalting column (GE Healthcare) pre-equilibrated with buffer A without imidazole, and the eluted protein was subjected to a second Ni-NTA step to remove His-tag and Thrombin. The eluent was concentrated and passed through a Superdex® 200 10/300GL column (GE Healthcare) in a buffer containing 20 mM HEPES (pH 7.5), 150 mM NaCl, and 1 mM DTT. Fractions were pooled, concentrated to 20 mg/ml, and frozen at −80° C.
In vitro USP10 activity assay. Recombinant USP10, residues 376-798, was tested for its activity in a Ubiquitin-AMC assay in presence or absence of inhibitors. For this assay, 10 nM USP10 were pre-incubated with different concentrations of inhibitors or DMSO as a control in 50 mM HEPES pH7.6, 0.5 mM EDTA, 11 uM ovalbumin, and 5 mM DTT. The reaction was incubated for 6 hours at room temperature prior to the addition of 2 uM Ubiquitin-AMC (Boston Biochem) substrate. The initial rate of the reaction was measured by collecting fluorescence data at one minute intervals over 30-minute period using a CLARIOstar® fluorescence plate reader at excitation and emission wavelength of 345 and 445 nm, respectively. The calculated initial rate values were plotted against inhibitor concentrations to determine IC50 values.

A further assay deals with Ba/F3-FLT3-ITD cells. The assay is described as follows: Immunoblot of FLT3 / Beclin-1 in Ba/F3-FLT3-ITD cells. It counts as cell-based, murine. Particulars: immunoblot; Ba/F3-FLT3-ITD cells. An excerpt: The following antibodies were purchased from Cell Signaling Technology (Danvers, Mass.): total AKT (rabbit, #9272) and total p44/42 MAPK (Erk1/2) (3A7) (mouse, #9107) were used at 1:1000 dilution. Anti-GAPDH (D16H-11) XP (R) (rabbit mAb, #5174) was used at 1:1000 dilution. Beclin-1 (rabbit, #3738) was used at 1:1000. USP10 (D7A5) (rabbit, #8501) was used at 1:1000 dilution. P53 (rabbit, #9282) was used at 1:1000 dilution. β-tubulin (rabbit, #2146s) was used 1:1000.
FLT3/Flk-2 (C-20) (sc-479) and Ub (P4D1) (mouse, sc-8017) were purchased from Santa Cruz Biotechnology, Inc. (Dallas, Tex.) and used at 1:1000 dilution for immunoblotting. Anti-pTyr (mouse, clone 4G10) was purchased from Upstate Biotechnology (Lake Placid, N.Y.) and was used at 1:1000 dilution. Anti-HAUSP/USP7 antibody (rabbit, ab4080) and anti-ubiquitin antibody (rabbit, ab7780) were purchased from Abcam (Cambridge, Mass.) and used at 1:1000 dilution.
Protein lysate preparation, immunoblotting, and immunoprecipitation were carried out as previously described in Weisberg et al. (2002) Cancer Cell 1:433-443.
For orientation: A western blot detects proteins with antibodies after separation by electrophoresis.

In the next assay the target is USP7 (Homo sapiens, UniProt Q93009). The assay is described as follows: USP7 IC50 of HBX19818 analogs (Table 9). It counts as biochemical. The following applies: read-out: USP7 IC50 +/− SEM.
Chain of USP7 (Q93009 whole entry): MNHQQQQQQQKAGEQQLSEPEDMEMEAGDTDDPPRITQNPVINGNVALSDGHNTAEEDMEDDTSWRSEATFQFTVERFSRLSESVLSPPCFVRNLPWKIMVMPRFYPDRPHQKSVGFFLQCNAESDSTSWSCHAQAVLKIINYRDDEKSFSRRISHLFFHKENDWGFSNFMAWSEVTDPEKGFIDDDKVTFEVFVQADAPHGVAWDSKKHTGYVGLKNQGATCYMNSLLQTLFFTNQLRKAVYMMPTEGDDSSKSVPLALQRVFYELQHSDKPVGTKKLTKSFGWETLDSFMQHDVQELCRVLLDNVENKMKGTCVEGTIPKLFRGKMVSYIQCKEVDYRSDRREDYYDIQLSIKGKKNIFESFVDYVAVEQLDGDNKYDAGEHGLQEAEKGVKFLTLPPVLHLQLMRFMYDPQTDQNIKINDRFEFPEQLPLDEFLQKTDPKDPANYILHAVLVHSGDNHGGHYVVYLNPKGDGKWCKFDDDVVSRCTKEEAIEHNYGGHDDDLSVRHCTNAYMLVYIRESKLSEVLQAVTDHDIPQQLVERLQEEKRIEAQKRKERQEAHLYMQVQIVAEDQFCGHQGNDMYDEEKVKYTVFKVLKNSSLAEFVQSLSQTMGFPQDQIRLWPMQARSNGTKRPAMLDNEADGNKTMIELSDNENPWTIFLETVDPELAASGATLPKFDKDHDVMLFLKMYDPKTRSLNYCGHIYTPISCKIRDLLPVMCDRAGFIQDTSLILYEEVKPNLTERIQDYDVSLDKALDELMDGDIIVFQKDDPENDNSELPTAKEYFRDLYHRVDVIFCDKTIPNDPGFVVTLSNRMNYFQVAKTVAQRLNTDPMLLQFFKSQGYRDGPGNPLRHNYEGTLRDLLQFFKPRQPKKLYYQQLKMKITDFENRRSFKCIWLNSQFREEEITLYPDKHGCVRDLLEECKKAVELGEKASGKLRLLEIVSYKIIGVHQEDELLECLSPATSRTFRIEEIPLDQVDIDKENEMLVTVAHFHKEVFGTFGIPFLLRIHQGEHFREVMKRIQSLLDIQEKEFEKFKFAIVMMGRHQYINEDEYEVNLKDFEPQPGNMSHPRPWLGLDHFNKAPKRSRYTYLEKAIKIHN

SMILES strings stand for the structures. Where only a bound is given, the exact number is not on record here.

On to `CCN(CCCNC(=O)c1ccc2nc3c(c(Cl)c2c1)CCCC3)c1ccccc1` [C598-0468], for which the IC50 (in assay [1]; on USP7) was over 100 µM each time. Further, the FLT3 protein levels result with Ba/F3-FLT3-ITD cells is listed as “no effect on FLT3 levels”. For `O=C(NCCc1ccc(Cl)cc1)c1ccc2nc3c(c(Cl)c2c1)CCCC3` [C598-0515], the IC50 at USP7 is over 100 µM.

In the case of `CCN(CC)S(=O)(=O)c1ccc(NC(=O)c2ccc3nc4c(c(Cl)c3c2)CCCC4)cc1` [C598-0646], the IC50 on USP7 was over 100 µM.
